Results as given in publication PMC6934184, “Selective DNA-PKcs inhibition extends the therapeutic index of localized radiotherapy and chemotherapy” (The Journal of Clinical Investigation, 2019).

Molecular target: T1, TAOK2 (TAO1) (Homo sapiens, UniProt Q9UL54)
T1 construct: purchased Thermo Fisher Scientific (Life Technologies) SelectScreen
Experiment: SelectScreen Z'LYTE
Assay type: biochemical
Method in brief: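 Percent values come from Thermo SelectScreen profiling of NU5455, combining activity and binding assays. CSF1R was run in Z'LYTE format at Km app ATP, and CAMK1 in Adapta format with ATP listed at 10.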

T1 sequence (Q9UL54 whole entry): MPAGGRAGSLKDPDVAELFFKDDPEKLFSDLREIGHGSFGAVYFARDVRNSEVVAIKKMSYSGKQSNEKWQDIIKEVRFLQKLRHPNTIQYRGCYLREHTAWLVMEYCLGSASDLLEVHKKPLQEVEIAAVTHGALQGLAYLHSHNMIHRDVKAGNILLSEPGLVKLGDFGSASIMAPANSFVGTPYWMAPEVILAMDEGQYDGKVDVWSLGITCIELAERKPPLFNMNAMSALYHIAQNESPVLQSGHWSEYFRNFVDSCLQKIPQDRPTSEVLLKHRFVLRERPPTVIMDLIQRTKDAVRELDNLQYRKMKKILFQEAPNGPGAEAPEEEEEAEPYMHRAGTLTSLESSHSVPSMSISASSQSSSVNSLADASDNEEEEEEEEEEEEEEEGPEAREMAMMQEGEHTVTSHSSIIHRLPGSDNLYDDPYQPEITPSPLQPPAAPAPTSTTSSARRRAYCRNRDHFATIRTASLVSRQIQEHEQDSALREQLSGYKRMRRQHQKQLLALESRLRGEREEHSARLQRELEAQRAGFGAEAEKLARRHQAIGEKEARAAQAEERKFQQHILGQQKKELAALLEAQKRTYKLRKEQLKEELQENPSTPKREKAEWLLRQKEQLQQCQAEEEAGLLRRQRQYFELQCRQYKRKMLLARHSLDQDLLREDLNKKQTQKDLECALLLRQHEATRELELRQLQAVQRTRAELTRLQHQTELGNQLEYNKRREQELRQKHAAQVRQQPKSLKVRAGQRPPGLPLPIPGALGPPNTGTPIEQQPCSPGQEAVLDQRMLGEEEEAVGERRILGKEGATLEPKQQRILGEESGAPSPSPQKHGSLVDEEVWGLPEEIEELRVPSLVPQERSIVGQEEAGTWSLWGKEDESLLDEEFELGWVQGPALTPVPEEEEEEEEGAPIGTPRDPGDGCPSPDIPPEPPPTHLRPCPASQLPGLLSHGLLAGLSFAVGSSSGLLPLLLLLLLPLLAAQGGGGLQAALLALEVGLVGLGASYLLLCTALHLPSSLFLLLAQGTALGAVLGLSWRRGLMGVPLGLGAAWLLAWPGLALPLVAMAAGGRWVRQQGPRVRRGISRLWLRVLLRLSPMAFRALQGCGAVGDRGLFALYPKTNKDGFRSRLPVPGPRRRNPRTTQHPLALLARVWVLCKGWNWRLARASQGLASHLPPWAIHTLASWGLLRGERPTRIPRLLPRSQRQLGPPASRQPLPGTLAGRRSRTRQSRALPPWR

Structure (SMILES): CN(C(=O)CN1CCOCC1)c1ccc2sc3c(-c4cccc5c(=O)cc(N6CC7CCC(C6)O7)oc45)cccc3c2c1 [NU5455]
- inhibition at 1 µM: -5.1%
